{
  "source": "patent US8409570B2",
  "about": "“Method of inducing apoptosis using anti-DR5 antibodies” (Genentech, Inc., priority 2005, dated 2013)",
  "key": {"[1]": {"system": "HCT15 xenograft model of colorectal cancer", "test": "HCT15 xenograft model", "format": "in vivo, mouse", "details": "Apomab 7.3 10 mg/kg, CPT-11 80 mg/kg, alone or combined; FIG. 26"}, "[2]": {"system": "human Colo 205 colon carcinoma xenograft", "test": "Human Colo 205 carcinoma xenograft model, tumor growth delay (Example 10)", "details": "for TGD: maximum possible 193%, all treatments i.p.; for MTV(n), median tumor volume on Day 61: n = mice remaining on Day 61", "description": "The animals were fed ad libitum water and NIH 31 Modified and Irradiated Lab Diet® consisting of 18.0% crude protein, 5.0% crude fat, and 5.0% crude fiber. The mice were housed on irradiated ALPHA-Dri® Bed-O'Cobs® Laboratory Animal Bedding in static microisolators on a 12-hour light cycle at 21-22° C. and 40-60% humidity.\nHuman Colo 205 colon carcinoma cells were cultured in RPMI 1640 medium containing 100 units/mL penicillin G sodium, 100 μg/mL streptomycin sulfate, 0.25 μg/mL amphotericin B, and 25 μg/mL gentamicin. The medium was supplemented with 10% heat-inactivated fetal bovine serum, 2 mM glutamine, and 1 mM sodium bicarbonate. The tumor cells were cultured in tissue culture flasks in a humidified incubator at 37° C., in an atmosphere of 5% CO2 and 95% air.\nThe human Colo 205 carcinoma cells used for implantation were harvested during log phase growth and resuspended in 50% matrigel at 5×10^6 cells/mL. Each mouse was injected s.c. in the right flank with 1×10^6 cells (0.2 mL cell suspension). Tumors were monitored twice weekly and then daily as their volumes approached 100-300 mm^3 On Day 1 of the study, animals were sorted into treatment groups with tumor sizes of 108.0-220.5 mm^3 and a group mean tumor size of 149.8 mm^3 Tumor weight may be estimated with the assumption that 1 mg is equivalent to 1 mm^3 of tumor volume.\nThe test materials were provided ready for dosing. The dosing solutions were stored at 4° C.\nMice were sorted into six groups with ten mice per group. All treatments were administered intraperitoneally (i.p.).\nApo2L.0 and its vehicle were each administered once daily on Days 1-5 (qd×5). […] Control Group 1 mice were treated with the vehicle for Apo2L.0. […] In all groups, the dosing volume of 0.2 ml/20 g mouse was scaled to the body weight of each animal."}, "[3]": {"system": "SKMES-1 human NSCLC xenograft", "test": "SKMES-1 human NSCLC xenograft, tumor growth delay (Example 9)", "details": "for median TTE: 1500 mm^3 endpoint volume, 45-day study, control median TTE 18.9 days; for TGD, % of control / TGD: versus vehicle control; for TGD, % of control: maximum achievable 138%; for TGD: maximum achievable 26.1 days", "excerpt": "Xenografts were initiated from SKMES-1 lung tumors maintained by serial transplantation at PRC. Each test mouse received a 1 mm^3 SKMES-1 tumor fragment implanted subcutaneously in the right flank, and tumor growth was monitored. Thirteen days later, designated as Day 1 of the study, individual tumor volumes ranged from 63 to 144 mm^3, and the animals were sorted into four groups each consisting of ten mice and two groups each consisting of nine mice. Mean tumor volumes were 93 to 95 mm^3.\nAll test materials were provided ready to dose at 0.1 mL per 20 g body weight (5 mL/kg), and were stored at −80° C. upon receipt. The test materials were thawed on the first day of dosing, kept on ice during dosing, then subsequently stored at 4° C. Carboplatin ([…] ® injection, Bristol Myers Squibb) was diluted with 5% dextrose in water (D5W) to yield the desired dose in a volume of 0.2 mL per 10 g body weight (10 mL/kg). Paclitaxel (Natural Pharmaceuticals, Inc.) was diluted with D5W on each day of dosing from a 10× stock solution to yield a vehicle consisting of 5% ethanol and 5% Cremophor EL in 90% D5W (5% EC vehicle), so that the desired dose was delivered in 0.1 mL per 20 g body weight.\nGroup 1 (vehicle control) mice received vehicle administered intraperitoneally once daily for five days (i.p. qd×5), and served as tumor growth controls. […] Each dose was administered in the volume indicated in the previous section, and was scaled to the body weight of the animal."}, "[4]": {"system": "Colo 205 human colon carcinoma xenografts", "test": "Colo 205 human colon carcinoma xenografts in nude mice, tumor growth delay (Example 8)", "format": "in vivo, mouse", "details": "endpoint tumor volume 1000 mm^3; for tumor growth delay (TGD): Apo2L.0 60 mg/kg i.p. 5/2/5, Apomab 7.3 3 mg/kg i.v. Days 1, 8, B20-4.1 10 mg/kg i.p. Days 1 and 8; for tumor growth delay (TGD), percentage of control median TTE: same regimens", "procedure": "Xenografts were initiated from cultured Colo 205 human colon carcinoma cells. […] On the day of tumor cell implant, Colo 205 cells were harvested and resuspended in 50% Matrigel matrix (BD Biosciences) in PBS at a concentration of 5×10^6 cells/mL.\nThe test materials were kept on ice during dosing, and dosing solutions were subsequently stored at 4° C.\nTumors were measured twice weekly using calipers. […] The time to endpoint (TTE) for each mouse was calculated from the following equation: […]\nWhere b is the intercept and m is the slope of the line obtained by linear regression of a log-transformed tumor growth data set. The data set was comprised of the first observation that exceeded the study endpoint volume and the three consecutive observations that immediately preceded the attainment of the endpoint volume. […] Animals suffering treatment-related death or non-treatment related death due to metastasis were assigned a TTE value equal to the day of death. Animals suffering non-treatment related death or death of unknown causes were excluded from the TTE calculations.\nTreatment outcome was evaluated by tumor growth delay (TGD), which is defined as the increase in the median time to endpoint (TTE) in the treatment group compared to the control group: TGD=T−C,\nTreatment may cause partial regression (PR) or complete regression (CR) of tumor in an animal In a PR response, the tumor volume is 50% or less of its Day 1 volume for three consecutive measurements during the course of the study, and equal to or greater than 13.5 mm^3 for one or more of these three measurements. In a CR response, the tumor volume is less than 13 5 mm^3 for one or more of these three measurements during the course of the study. An animal with a CR response at the termination of the study is additionally classified as a tumor-free survivor (TFS). Regression responses were monitored and recorded.\nThe Logrank test was use to analyze the significance of the differences between the TTE values of treated and control groups. Two-tailed statistical analyses were conducted at significance level P=0.05, with results deemed significant at 0.01 P 0.05, and highly significant at P<0.01.\nMedian tumor growth curves show group median tumor volumes as a function of time."}, "[5]": {"system": "Colo 205 xenograft", "test": "Colo 205 xenograft model, Apomabs 23.3, 25.3 and 7.3 (Example 7)", "format": "in vivo, mouse", "details": "single 3 or 10 mg/kg i.v. dose; 25-day data; FIG. 33", "procedure": "All mice were ear tagged for identification. […] Group 4 was administered a single 3 mg/kg/mouse i.v. dose of Apomab 23.3. Group 5 was administered a single […] i.v. dose of Apomab 23.3. […] 24 hours post treatment all mice were weighed. Tumors were measured 2×/week for the first 2 weeks and then weekly for the next 4 weeks. After 6 weeks or when the tumors reached a size of >1000 mm^3, the mice were sacrificed."}, "[6]": {"system": "Colo 205 human colon carcinoma xenograft", "test": "Colo 205 xenograft athymic nude mouse model (Example 2)", "format": "in vivo", "procedure": "All mice were ear-tagged for identification. Once the tumor volume was approximately 100-200 mm^3, the Colo 205 tumor-bearing mice were randomly grouped and treatment was administered.\nIn some instances, 3 or 4 mice were euthanized from the vehicle and 10 mg/kg groups, and serum and tumors were collected at 5 minutes, 24 hours or 48 hours post treatment for serum drug concentration and tumor histology studies. In the remaining mice, tumor measurements were taken twice a week for the first 2 weeks, then once a week for another 4 weeks."}, "[7]": {"system": "BxPC3 xenograft", "test": "BxPC3 xenograft model of human pancreatic adenocarcinoma", "format": "in vivo, mouse", "details": "Apomab 7.3 10 mg/kg i.v., gemcitabine 160 mg/kg ip; FIG. 29"}, "[8]": {"system": "H2122 xenograft", "test": "H2122 xenograft model of human lung cancer", "format": "in vivo, mouse", "procedure": "All mice were ear tagged for identification.\nAll mice were ear tagged for identification. […] Any mice excluded from the treatment groups were euthanized.\nGroup A was a vehicle-treated control group (0.5 M arginine succinate, 20 mM Tris, 0.02% Tween 20, pH 7.2). […] 48 hours following the first treatment, three mice from each of Groups B, C and D were euthanized, and their tumors were collected as follows. One tumor was preserved in 10% formalin for histology study. One tumor was frozen in liquid nitrogen for RNA studies. One tumor was frozen in liquid nitrogen for Western blot. Tumor measurements were taken 2×/week for the first 2 weeks then 1×/week for the next 4 weeks."}, "[9]": {"system": "Colo205 human colon carcinoma cell line", "test": "Bioassay: tumor cell growth inhibition/killing (AlamarBlue)", "format": "cell-based", "details": "Apomab framework variants; last column of Table 12", "procedure": "Bioassay: tumor cell growth inhibition/killing. The apparent potency of each antibody variant was determined in an in vitro tumor cell-killing assay. Colo205 human colon carcinoma cell line was cultured in RPMI medium containing 10% fetal bovine serum. […] Cells (20,000/well) were then added to the plates. The plates were incubated at 37° C. for a total of 48 h. AlamarBlue was added to the wells for the last 3 h of incubation. Fluorescence was read using a fluorometer with excitation at 530 nm and emission of 590 nm. The data were analyzed using a four parameter curve-fitting program."}},
  "data": [
    {"compound": "CCc1c2c(nc3ccc(OC(=O)N4CCC(N5CCCCC5)CC4)cc13)-c1cc3c(c(=O)n1C2)COC(=O)[C@]3(O)CC", "note": "[CPT-11, irinotecan, reference compound]", "values": [
      {"measurement": "anticancer activity", "setting": "[1]", "result": "effective when administered alone"}
    ]},
    {"compound": "Apo2L.0: soluble form of Apo-2 ligand (TRAIL), 114-281 extracellular domain sequence", "values": [
      {"measurement": "median TTE", "setting": "[2]; 1500 mm^3 endpoint volume, 61-day study, control median TTE 20.8 days", "result": 53.6, "unit": "days"},
      {"measurement": "TGD", "setting": "[2]", "result": 158, "unit": "%"},
      {"measurement": "MTV(n), median tumor volume on Day 61", "setting": "[2]", "result": "1,210 mm^3"},
      {"measurement": "LTTFS (long-term tumor-free survivor)", "setting": "[2]; ten mice per group", "result": "One"},
      {"measurement": "T-C", "setting": "[2]; versus vehicle control", "result": 32.8, "unit": "days"},
      {"measurement": "median TTE", "setting": "[3]", "result": 22.9, "unit": "days"},
      {"measurement": "TGD, % of control", "setting": "[3]", "result": 21, "unit": "%"},
      {"measurement": "TGD", "setting": "[3]", "result": 4.0, "unit": "days"},
      {"measurement": "tumor growth delay (TGD)", "setting": "[4]", "result": 28.4, "unit": "days"},
      {"measurement": "tumor growth delay (TGD), percentage of control median TTE", "setting": "[4]", "result": 190, "unit": "%"}
    ]},
    {"compound": "Apomab 7.3: anti-DR5 IgG: heavy chain TH7 (G33A, N53Q, L102Y) + light chain TL3 (Q24S, K51A, R91A); SEQ ID NOS: 18 and 20", "values": [
      {"measurement": "anticancer activity", "setting": "[5]", "result": "significant anticancer activity"},
      {"measurement": "TGD", "setting": "[2]", "result": 193, "unit": "%"},
      {"measurement": "MTV(n), median tumor volume on Day 61", "setting": "[2]", "result": 776, "unit": "mm^3"},
      {"measurement": "61-day survivors", "setting": "[2]; ten mice per group", "result": "six"},
      {"measurement": "LTTFS (long-term tumor-free survivor)", "setting": "[2]; ten mice per group", "result": "One"},
      {"measurement": "PR responses", "setting": "[2]; ten mice per group", "result": "three"},
      {"measurement": "transient CR response", "setting": "[2]; ten mice per group", "result": "one"},
      {"measurement": "median TTE", "setting": "[3]", "result": 2.0, "unit": "days"},
      {"measurement": "regression responses", "setting": "[3]; mouse, in vivo", "result": "No regression responses were documented"},
      {"measurement": "TGD, % of control", "setting": "[3]", "result": 38, "unit": "%"},
      {"measurement": "TGD", "setting": "[3]", "result": 7.1, "unit": "days"},
      {"measurement": "reversal of efficacy during test period", "setting": "[6]; 1 mg/kg and 3 mg/kg doses, 20-day test period, FIG. 23", "result": "does not show any reversal during the 20-day test period"},
      {"measurement": "reduction of tumor volume", "setting": "[6]; 1 mg/kg and 3 mg/kg doses, FIG. 23", "result": "effective in reducing tumor volume"},
      {"measurement": "anticancer activity compared with Apomabs 23.3 and 25.3", "setting": "[6]; FIG. 24", "result": "far exceeded the activity of Apomabs 23.3 and 25.3"},
      {"measurement": "reduction of (mean) tumor volume", "setting": "[6]; single intraperitoneal dose 3 or 10 mg/kg, FIGS. 21 and 22, efficacy essentially the same as 16E2 version 1", "result": "highly efficient in reducing tumor volume"},
      {"measurement": "anticancer activity", "setting": "[7]", "result": "far superior to the efficacy of gemcitabine"},
      {"measurement": "dose-response efficacy", "setting": "[8]; 1, 3 and 10 mg/kg single IV dose, FIG. 32", "result": "efficacious in all doses tested"},
      {"measurement": "mice with complete response (CR)", "setting": "[8]; 6 mice/group, without any reversal during the 70-day treatment period", "result": "All six"},
      {"measurement": "tumor growth delay (TGD)", "setting": "[4]", "result": 53.0, "unit": "days"},
      {"measurement": "tumor growth delay (TGD), percentage of control median TTE", "setting": "[4]", "result": 355, "unit": "%"},
      {"measurement": "anticancer activity", "setting": "[1]", "result": "effective when administered alone"}
    ]},
    {"compound": "Apomab 18.3: Apomab version with heavy chain framework residues E LVQ K", "values": [
      {"measurement": "Bioassay activity with crosslinking", "setting": "[9]", "result": "None"}
    ]},
    {"compound": "Apomab 25.3: Apomab version with heavy chain framework residues Q LVQ K", "values": [
      {"measurement": "anticancer activity", "setting": "[5]", "result": "significant anticancer activity"}
    ]},
    {"compound": "Apomab 27.3: Apomab version with heavy chain framework residues E VER K", "values": [
      {"measurement": "Bioassay activity with crosslinking", "setting": "[9]", "result": "none"}
    ]}
  ]
}
